Counter-ions that a name gives are not always drawn. Like-named read-outs stand apart in the source and are kept apart here.
Legend:
[1] = Solubility in water; assay type: physicochemical
Description: The compound is referred to in Kaneko et al U.S. Pat. No. 4,785,085 as 6-(2-diethylaminoethyl)rebeccmycin and its preparation is described in Example 1 of the patent and its effectiveness to inhibit growth of tumors in experimental animal systems is shown in Table 3 of the patent. […] Instead, it forms a suspension.
Besides being stable at room temperature, the solutions herein have enhanced solubility at low temperatures, e.g., refrigeration temperatures or cold conditions encountered during shipping or storage, etc.
Pharmaceutically acceptable acid components (c) which meet this solubility criterion include, for example, L-(+)-tartaric, D,L-malic, L-(-)-malic, citric, L-(+)-lactic, lactobionic, methanesulfonic, phosphoric, pyroglutamic, succinic and sulfuric acids. The most preferred acid of these is L-(+)-tartaric acid.

[2] = test system: transplanted mouse leukemia P-338
Description: (§1) The screening procedures involved administration of test compound intraperitonially (IP) to CDF1 female mice (18 to 22 grams) infected with 1×10^6 ascites cells intraperitonially, and intravenously (IV) to CDF1 female mice (18 to 22 Grams) infected with 1×10 ascites cells intravenously. Drug therapy was started on Day 1 (date of implant) and consisted of 1 injection per day for 5 successive days. […] Mitomycin C is included for comparison purposes.

[3] = test system: transplanted mouse leukemia P-338; conditions: for % T/C (median survival time) / MST (median survival time): IV, 5 daily injections; for AWC (average weight change at Day 5): mouse, in vivo, iv
Description: as §1

[4] = Long term physical stability of aqueous solutions at room temperature; assay type: physicochemical; conditions: one molar equivalent of acid; period less than 2 years at room temperature
Description: These unexpected physical instabilities include gelling, precipitation, cloudiness, and formation of liquid crystalline phases which render solutions of the crystalline salts unsuitable for practical use as, or for dilution with water to provide, injectable solutions.

[5] = IP, 4.8 mg/kg/inj, 5 daily injections

CCN(CC)CCN1C(=O)c2c(c3c4cccc(Cl)c4n([C@@H]4O[C@H](CO)[C@@H](OC)[C@H](O)[C@H]4O)c3c3[nH]c4c(Cl)cccc4c23)C1=O
solubility in water (in words) ([1]; added to water to form an aqueous injectable solution): not sufficiently soluble in water

CO[C@@]12[C@H](COC(N)=O)C3=C(C(=O)C(C)=C(N)C3=O)N1C[C@@H]1N[C@@H]12 [Mitomycin C]
% T/C (median survival time) [2, 5]: 205% | MST (median survival time) [2, 5]: 20.5 days | AWC (average weight change at Day 5) ([2]; mouse, in vivo, ip, 4.8 mg/kg): -0.6 Grams | % T/C (median survival time) ([3]; 1.6 mg/kg/inj): 127% | MST (median survival time) ([3]; 1.6 mg/kg/inj): 9.5 days | % T/C (median survival time) ([3]; 4.8 mg/kg/inj): 160% | MST (median survival time) ([3]; 4.8 mg/kg/inj): 12.0 days | AWC (average weight change at Day 5) ([3]; 1.6 mg/kg): 0.4 Grams | AWC (average weight change at Day 5) ([3]; 4.8 mg/kg): -0.1 Grams

CCN(CC)CCN1C(=O)c2c(c3c4cccc(Cl)c4n([C@@H]4O[C@H](CO)[C@@H](OC)[C@H](O)[C@H]4O)c3c3[nH]c4c(Cl)cccc4c23)C1=O [hydrochloride salt]
physical instability / shelf stability of solutions of acid addition salts (in words) [4]: do not form aqueous solutions which are sufficiently shelf stable

CCN(CC)CCN1C(=O)c2c(c3c4cccc(Cl)c4n([C@@H]4O[C@H](CO)[C@@H](OC)[C@H](O)[C@H]4O)c3c3[nH]c4c(Cl)cccc4c23)C1=O [succinic]
solubility ([1]; water, salt formed from free base and a molar equivalent of acid, room temperature, read-out: solubility of acid addition salt in water): > 25 mg/mL
